In PubChem BioAssay (NCI):
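Protocol summary: plate cells (96-well), add compound at 5 concentrations, incubate 48 h, interpolate endpoints linearly. The concentration for 50% growth inhibition is given as GI50. TGI denotes the concentration required for complete inhibition of growth.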

Tests used:
Assay in all cases: NCI anticancer screen, dose series, 48 h
ACHN renal = tested on: ACHN renal
NCI/ADR-RES ovarian = tested on: NCI/ADR-RES ovarian
SF-539 CNS = tested on: SF-539 CNS
MOLT-4 leukemia = tested on: MOLT-4 leukemia
HT29 colon = tested on: HT29 colon
SK-MEL-5 melanoma = tested on: SK-MEL-5 melanoma
EKVX NSCLC = tested on: EKVX NSCLC
SF-295 CNS = tested on: SF-295 CNS
HOP-92 NSCLC = tested on: HOP-92 NSCLC
OVCAR-8 ovarian = tested on: OVCAR-8 ovarian
UACC-257 melanoma = tested on: UACC-257 melanoma
IGROV1 ovarian = tested on: IGROV1 ovarian
CCRF-CEM leukemia = tested on: CCRF-CEM leukemia
NCI-H522 lung = tested on: NCI-H522 lung
MCF7 breast = tested on: MCF7 breast
RPMI-8226 leukemia = tested on: RPMI-8226 leukemia
HCC-2998 colon = tested on: HCC-2998 colon
RXF 393 renal = tested on: RXF 393 renal
NCI-H23 lung = tested on: NCI-H23 lung
BT-549 breast = tested on: BT-549 breast
TK-10 renal = tested on: TK-10 renal
DU-145 prostate = tested on: DU-145 prostate
HL-60(TB) leukemia = tested on: HL-60(TB) leukemia
HCT-116 colon = tested on: HCT-116 colon
UO-31 renal = tested on: UO-31 renal
HCT-15 colon = tested on: HCT-15 colon
SW-620 colon = tested on: SW-620 colon
HS 578T breast = tested on: HS 578T breast
NCI-H226 lung = tested on: NCI-H226 lung
OVCAR-5 ovarian = tested on: OVCAR-5 ovarian
MDA-MB-435 = tested on: MDA-MB-435
SK-MEL-28 melanoma = tested on: SK-MEL-28 melanoma
KM12 colon = tested on: KM12 colon
UACC-62 melanoma = tested on: UACC-62 melanoma
SNB-19 CNS = tested on: SNB-19 CNS
MALME-3M melanoma = tested on: MALME-3M melanoma
SR leukemia = tested on: SR leukemia
U251 CNS = tested on: U251 CNS
A498 renal = tested on: A498 renal
SNB-75 CNS = tested on: SNB-75 CNS
NCI-H460 lung = tested on: NCI-H460 lung
SK-OV-3 ovarian = tested on: SK-OV-3 ovarian
OVCAR-4 ovarian = tested on: OVCAR-4 ovarian
K-562 leukemia = tested on: K-562 leukemia
T-47D breast = tested on: T-47D breast
786-0 renal = tested on: 786-0 renal
A549 NSCLC = tested on: A549 NSCLC
M14 melanoma = tested on: M14 melanoma
SK-MEL-2 melanoma = tested on: SK-MEL-2 melanoma
SN12C renal = tested on: SN12C renal
HOP-62 NSCLC = tested on: HOP-62 NSCLC
OVCAR-3 ovarian = tested on: OVCAR-3 ovarian
COLO 205 colon = tested on: COLO 205 colon
CAKI-1 renal = tested on: CAKI-1 renal
SF-268 CNS = tested on: SF-268 CNS

With `Cc1nn(-c2ccccc2)cc1/C=N/Nc1nc(Nc2ccccc2)nc(Nc2ccc(S(N)(=O)=O)cc2)n1` the GI50 (ACHN renal) was 1900 nM, the TGI (ACHN renal) was 3570 nM and the GI50 (NCI/ADR-RES ovarian) was > 100000 nM. The TGI (NCI/ADR-RES ovarian) was > 100000 nM, the GI50 (SF-539 CNS) was 1710 nM and the TGI (SF-539 CNS) was 3270 nM. The GI50 (MOLT-4 leukemia) was 2290 nM, the TGI (MOLT-4 leukemia) was > 100000 nM and the GI50 (HT29 colon) was 2880 nM. The TGI (HT29 colon) was > 100000 nM, the GI50 (SK-MEL-5 melanoma) was 1480 nM and the TGI (SK-MEL-5 melanoma) was 2800 nM. The GI50 (EKVX NSCLC) was 2000 nM, the TGI (EKVX NSCLC) was 5090 nM and the GI50 (SF-295 CNS) was 2230 nM. The TGI (SF-295 CNS) was 5940 nM, the GI50 (HOP-92 NSCLC) was 2440 nM and the TGI (HOP-92 NSCLC) was 5440 nM. The GI50 (OVCAR-8 ovarian) was 2050 nM, the TGI (OVCAR-8 ovarian) was > 100000 nM and the GI50 (UACC-257 melanoma) was 2500 nM. It also gave a TGI (UACC-257 melanoma) of 7430 nM, a GI50 (IGROV1 ovarian) of 2590 nM and a TGI (IGROV1 ovarian) of 6700 nM. The GI50 (CCRF-CEM leukemia) was 2090 nM, the TGI (CCRF-CEM leukemia) was > 100000 nM and the GI50 (NCI-H522 lung) was 2660 nM. The TGI (NCI-H522 lung) was 8270 nM, the GI50 (MCF7 breast) was 1550 nM and the TGI (MCF7 breast) was 3430 nM. For the same compound, the GI50 (RPMI-8226 leukemia) was 1660 nM, the TGI (RPMI-8226 leukemia) was 5410 nM and the GI50 (HCC-2998 colon) was 1880 nM. It also gave a TGI (HCC-2998 colon) of 3630 nM, a GI50 (RXF 393 renal) of 1770 nM and a TGI (RXF 393 renal) of 3390 nM. It also gave a GI50 (NCI-H23 lung) of 1750 nM, a TGI (NCI-H23 lung) of 3620 nM and a GI50 (BT-549 breast) of 1850 nM. The TGI (BT-549 breast) was 4560 nM, the GI50 (TK-10 renal) was 1480 nM and the TGI (TK-10 renal) was 3500 nM. For the same compound, the GI50 (DU-145 prostate) was 3060 nM, the TGI (DU-145 prostate) was 9480 nM and the GI50 (HL-60(TB) leukemia) was 2240 nM. For the same compound, the TGI (HL-60(TB) leukemia) was 7670 nM, the GI50 (HCT-116 colon) was 2000 nM and the TGI (HCT-116 colon) was 4520 nM. It also gave a GI50 (UO-31 renal) of 1720 nM, a TGI (UO-31 renal) of 3540 nM and a GI50 (HCT-15 colon) of 2670 nM. The TGI (HCT-15 colon) was > 100000 nM, the GI50 (SW-620 colon) was 3380 nM and the GI50 (HS 578T breast) was 2770 nM. It also gave a TGI (HS 578T breast) of 8100 nM, a GI50 (NCI-H226 lung) of 1850 nM and a TGI (NCI-H226 lung) of 4340 nM. It also gave a GI50 (OVCAR-5 ovarian) of 2060 nM, a TGI (OVCAR-5 ovarian) of 5040 nM and a GI50 (MDA-MB-435) of 1770 nM. The TGI (MDA-MB-435) was 3460 nM, the GI50 (SK-MEL-28 melanoma) was 1800 nM and the TGI (SK-MEL-28 melanoma) was 3460 nM. For the same compound, the GI50 (KM12 colon) was 2840 nM, the TGI (KM12 colon) was 8330 nM and the GI50 (UACC-62 melanoma) was 1780 nM. For the same compound, the TGI (UACC-62 melanoma) was 3570 nM, the GI50 (SNB-19 CNS) was 3440 nM and the TGI (SNB-19 CNS) was > 100000 nM. For the same compound, the GI50 (MALME-3M melanoma) was 1600 nM, the TGI (MALME-3M melanoma) was 3130 nM and the GI50 (SR leukemia) was 2450 nM. For the same compound, the TGI (SR leukemia) was > 100000 nM, the GI50 (U251 CNS) was 3650 nM and the TGI (U251 CNS) was > 100000 nM. The GI50 (A498 renal) was 1710 nM, the TGI (A498 renal) was 3390 nM and the GI50 (SNB-75 CNS) was 2690 nM. The TGI (SNB-75 CNS) was 8720 nM, the GI50 (NCI-H460 lung) was 2770 nM and the TGI (NCI-H460 lung) was 7380 nM. For the same compound, the GI50 (SK-OV-3 ovarian) was 2930 nM, the TGI (SK-OV-3 ovarian) was 6610 nM and the GI50 (OVCAR-4 ovarian) was 2560 nM. For the same compound, the TGI (OVCAR-4 ovarian) was 7320 nM, the GI50 (K-562 leukemia) was 2630 nM and the TGI (K-562 leukemia) was > 100000 nM.
For `Nc1nc(N)c2c(n1)NC(c1ccc(C(F)(F)F)cc1)CC(c1ccc(Nc3nc(NCCO)nc(Nc4ccc(Cl)cc4)n3)cc1)=N2` (stereo not drawn), the GI50 (ACHN renal) was 1500 nM, the TGI (ACHN renal) was 2820 nM and the GI50 (T-47D breast) was 1550 nM. It also gave a TGI (T-47D breast) of 3690 nM, a GI50 (786-0 renal) of 1390 nM and a TGI (786-0 renal) of 2910 nM. It also gave a GI50 (SF-539 CNS) of 1560 nM, a TGI (SF-539 CNS) of 2970 nM and a GI50 (A549 NSCLC) of 1730 nM. For the same compound, the TGI (A549 NSCLC) was 3500 nM, the GI50 (HT29 colon) was 1360 nM and the TGI (HT29 colon) was 2990 nM. The GI50 (SK-MEL-5 melanoma) was 1550 nM, the TGI (SK-MEL-5 melanoma) was 2890 nM and the GI50 (EKVX NSCLC) was 1520 nM. For the same compound, the TGI (EKVX NSCLC) was 2960 nM, the GI50 (SF-295 CNS) was 1790 nM and the TGI (SF-295 CNS) was 3320 nM. The GI50 (HOP-92 NSCLC) was 1480 nM, the TGI (HOP-92 NSCLC) was 3430 nM and the GI50 (M14 melanoma) was 1640 nM. The TGI (M14 melanoma) was 3060 nM, the GI50 (OVCAR-8 ovarian) was 1500 nM and the TGI (OVCAR-8 ovarian) was 2940 nM. It also gave a GI50 (UACC-257 melanoma) of 1750 nM, a TGI (UACC-257 melanoma) of 3190 nM and a GI50 (CCRF-CEM leukemia) of 1230 nM. The TGI (CCRF-CEM leukemia) was > 100000 nM, the GI50 (NCI-H522 lung) was 1340 nM and the TGI (NCI-H522 lung) was 2720 nM. The GI50 (HCC-2998 colon) was 1310 nM, the TGI (HCC-2998 colon) was 2620 nM and the GI50 (SK-MEL-2 melanoma) was 1670 nM. The TGI (SK-MEL-2 melanoma) was 3070 nM, the GI50 (SN12C renal) was 1760 nM and the TGI (SN12C renal) was 3340 nM. The GI50 (RXF 393 renal) was 1140 nM, the TGI (RXF 393 renal) was 2500 nM and the GI50 (BT-549 breast) was 1570 nM. It also gave a TGI (BT-549 breast) of 3160 nM, a GI50 (HOP-62 NSCLC) of 1630 nM and a TGI (HOP-62 NSCLC) of 3160 nM. It also gave a GI50 (TK-10 renal) of 1780 nM, a TGI (TK-10 renal) of 3170 nM and a GI50 (DU-145 prostate) of 1510 nM. The TGI (DU-145 prostate) was 2840 nM, the GI50 (OVCAR-3 ovarian) was 1320 nM and the TGI (OVCAR-3 ovarian) was 2940 nM. For the same compound, the GI50 (HCT-116 colon) was 1050 nM, the TGI (HCT-116 colon) was 2410 nM and the GI50 (UO-31 renal) was 1430 nM. The TGI (UO-31 renal) was 2760 nM, the GI50 (HCT-15 colon) was 1150 nM and the TGI (HCT-15 colon) was 2580 nM. For the same compound, the GI50 (SW-620 colon) was 1600 nM, the TGI (SW-620 colon) was 3360 nM and the GI50 (COLO 205 colon) was 1330 nM. For the same compound, the TGI (COLO 205 colon) was 2640 nM, the GI50 (NCI-H226 lung) was 1840 nM and the TGI (NCI-H226 lung) was 3910 nM. It also gave a GI50 (OVCAR-5 ovarian) of 1600 nM, a TGI (OVCAR-5 ovarian) of 3000 nM and a GI50 (CAKI-1 renal) of 1450 nM. For the same compound, the TGI (CAKI-1 renal) was 2850 nM, the GI50 (MDA-MB-435) was 1400 nM and the TGI (MDA-MB-435) was 2720 nM. For the same compound, the GI50 (SK-MEL-28 melanoma) was 1530 nM, the TGI (SK-MEL-28 melanoma) was 2860 nM and the GI50 (SF-268 CNS) was 1660 nM. For the same compound, the TGI (SF-268 CNS) was 3470 nM, the GI50 (KM12 colon) was 1370 nM and the TGI (KM12 colon) was 2880 nM. It also gave a GI50 (SNB-19 CNS) of 1510 nM, a TGI (SNB-19 CNS) of 2950 nM and a GI50 (U251 CNS) of 1240 nM. It also gave a TGI (U251 CNS) of 2530 nM, a GI50 (A498 renal) of 1560 nM and a TGI (A498 renal) of 2900 nM. The GI50 (SNB-75 CNS) was 1700 nM, the TGI (SNB-75 CNS) was 3930 nM and the GI50 (NCI-H460 lung) was 1960 nM. It also gave a TGI (NCI-H460 lung) of 4010 nM, a GI50 (SK-OV-3 ovarian) of 1830 nM and a TGI (SK-OV-3 ovarian) of 3450 nM. For the same compound, the GI50 (K-562 leukemia) was 642 nM and the TGI (K-562 leukemia) was > 100000 nM.
